Reference: patent US11878966B2, “Substituted 4-benzyl and 4-benzoyl piperidine derivates” (89BIO LTD, priority 2015, dated 2024)

biological target: T1, recombinant human baculovirus-expressed GST-tagged FASN (Homo sapiens, UniProt P49327); test: FASN enzyme activity assay: fluorescence-based detection of CoA with CPM; type: biochemical; details: 5 nM FASN, 150 μM NADPH, 10 μM acetyl-CoA, 25 μM malonyl-CoA, 90 minutes incubation
T1 construct: GST; host or cells: baculovirus expression system (insect cells implied)
Outline: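 IC50 values were fitted (variable-slope sigmoid) to percent inhibition from CPM fluorescence (390/530 nm) reporting free CoA after a 30 min labelling step. The reaction ran 90 min after malonyl-CoA (25 μM) addition, with 10 μM acetyl-CoA, 150 μM NADPH, 5 nM recombinant GST-FASN, 50 mM HEPES pH 7.5 and 0.5% DMSO.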

T1 sequence (P49327 whole entry): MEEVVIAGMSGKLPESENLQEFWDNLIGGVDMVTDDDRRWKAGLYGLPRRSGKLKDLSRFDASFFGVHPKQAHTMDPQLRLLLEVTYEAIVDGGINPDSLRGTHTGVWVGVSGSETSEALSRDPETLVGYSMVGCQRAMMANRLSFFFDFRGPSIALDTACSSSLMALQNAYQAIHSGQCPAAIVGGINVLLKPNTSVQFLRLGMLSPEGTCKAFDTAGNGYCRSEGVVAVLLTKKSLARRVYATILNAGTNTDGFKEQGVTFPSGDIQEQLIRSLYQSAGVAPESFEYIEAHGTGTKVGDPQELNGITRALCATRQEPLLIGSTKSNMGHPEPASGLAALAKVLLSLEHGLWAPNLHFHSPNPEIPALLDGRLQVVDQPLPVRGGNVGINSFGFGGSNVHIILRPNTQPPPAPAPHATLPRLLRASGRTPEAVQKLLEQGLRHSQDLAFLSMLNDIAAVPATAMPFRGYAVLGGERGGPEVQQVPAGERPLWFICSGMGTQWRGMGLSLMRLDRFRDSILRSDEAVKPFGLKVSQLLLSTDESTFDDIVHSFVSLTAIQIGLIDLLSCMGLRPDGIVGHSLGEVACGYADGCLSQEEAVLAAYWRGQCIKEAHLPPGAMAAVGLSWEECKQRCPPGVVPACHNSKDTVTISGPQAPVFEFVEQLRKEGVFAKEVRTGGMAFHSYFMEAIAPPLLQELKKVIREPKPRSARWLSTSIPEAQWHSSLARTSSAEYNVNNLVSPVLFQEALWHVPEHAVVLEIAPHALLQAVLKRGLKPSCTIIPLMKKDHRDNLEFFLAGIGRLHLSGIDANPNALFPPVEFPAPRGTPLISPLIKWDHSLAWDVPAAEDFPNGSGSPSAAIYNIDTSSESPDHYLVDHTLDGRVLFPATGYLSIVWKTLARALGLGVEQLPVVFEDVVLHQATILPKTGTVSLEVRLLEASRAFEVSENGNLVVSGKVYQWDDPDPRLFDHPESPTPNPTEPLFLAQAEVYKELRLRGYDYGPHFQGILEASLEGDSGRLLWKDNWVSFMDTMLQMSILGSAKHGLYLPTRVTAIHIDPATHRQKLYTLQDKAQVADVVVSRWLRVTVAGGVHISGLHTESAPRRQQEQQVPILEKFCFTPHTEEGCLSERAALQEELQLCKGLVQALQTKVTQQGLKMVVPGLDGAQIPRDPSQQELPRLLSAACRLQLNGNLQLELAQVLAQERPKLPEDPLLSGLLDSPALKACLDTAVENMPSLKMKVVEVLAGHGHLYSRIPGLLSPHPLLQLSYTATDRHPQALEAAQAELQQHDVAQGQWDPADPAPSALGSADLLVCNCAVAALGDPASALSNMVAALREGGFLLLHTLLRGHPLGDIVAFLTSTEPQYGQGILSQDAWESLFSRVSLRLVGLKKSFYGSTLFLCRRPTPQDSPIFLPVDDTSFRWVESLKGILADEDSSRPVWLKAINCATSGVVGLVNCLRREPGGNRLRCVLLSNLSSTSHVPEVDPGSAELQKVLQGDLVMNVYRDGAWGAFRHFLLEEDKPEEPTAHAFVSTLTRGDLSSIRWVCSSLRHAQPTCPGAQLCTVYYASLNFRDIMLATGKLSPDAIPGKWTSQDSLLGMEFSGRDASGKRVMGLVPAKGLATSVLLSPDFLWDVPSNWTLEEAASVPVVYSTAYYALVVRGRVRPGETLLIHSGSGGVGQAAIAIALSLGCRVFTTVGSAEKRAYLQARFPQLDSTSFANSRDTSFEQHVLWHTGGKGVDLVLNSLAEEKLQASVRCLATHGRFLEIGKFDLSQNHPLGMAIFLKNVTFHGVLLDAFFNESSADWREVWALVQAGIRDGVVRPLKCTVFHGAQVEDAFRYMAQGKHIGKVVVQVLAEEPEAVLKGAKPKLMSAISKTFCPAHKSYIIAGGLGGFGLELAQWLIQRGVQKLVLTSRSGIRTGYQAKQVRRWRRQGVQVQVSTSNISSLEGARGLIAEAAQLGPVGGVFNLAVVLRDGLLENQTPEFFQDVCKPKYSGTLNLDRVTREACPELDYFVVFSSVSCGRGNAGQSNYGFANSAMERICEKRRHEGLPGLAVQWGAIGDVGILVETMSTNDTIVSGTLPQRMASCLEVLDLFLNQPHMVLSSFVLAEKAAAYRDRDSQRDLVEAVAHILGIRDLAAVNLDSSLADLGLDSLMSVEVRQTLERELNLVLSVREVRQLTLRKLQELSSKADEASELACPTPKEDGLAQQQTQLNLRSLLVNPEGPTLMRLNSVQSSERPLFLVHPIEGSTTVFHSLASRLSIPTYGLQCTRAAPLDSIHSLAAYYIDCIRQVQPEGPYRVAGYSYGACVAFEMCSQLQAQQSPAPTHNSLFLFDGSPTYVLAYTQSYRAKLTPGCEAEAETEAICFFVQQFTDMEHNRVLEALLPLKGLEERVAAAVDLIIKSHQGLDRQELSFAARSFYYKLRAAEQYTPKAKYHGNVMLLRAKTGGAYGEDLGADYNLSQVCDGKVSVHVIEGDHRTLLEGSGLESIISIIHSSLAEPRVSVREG

Row | Compound | IC50
1 | CC(C)C(=O)N1CCC(C2(c3ccc(-c4ccc(CN(C)C)cc4)cc3)OCCO2)CC1 [Example 135, 1-{4-[2-(4′-Dimethylaminomethyl-biphenyl-4-yl)-1,3-dioxolan-2-yl]piperidin-1-yl}-2-methyl-propan-1-one] | 1000 to 10000 nM
2 | O=C([C@H]1CCCO1)N1CCC(Cc2ccc(-c3cnc4ccccc4c3Cl)cc2)CC1 [Example 22, {4-[4-(4-Chloroquinolin-3-yl)-benzyl]-piperidin-1-yl}-(R)-tetrahydrofuran-2-yl-methanone] | 1 to 99 nM
3 | Cc1c(-c2ccc(CC3CCN(C(=O)C4CC4)CC3)cc2)ccc2nccn12 [Example 95, Cyclopropyl-{4-[4-(5-methylimidazo[1,2-a]pyridin-6-yl)-benzyl]-piperidin-1-yl}-methanone] | 100 to 999 nM
4 | CCC(=O)N1CCC(Cc2ccc(-c3ccc4cccnc4c3OC)cc2)CC1 [Example 32, 1-{4-[4-(8-Methoxyquinolin-7-yl)-benzyl]-piperidin-1-yl}-propan-1-one] | 1 to 99 nM
5 | CCC(=O)N1CCC(Cc2ccc(-c3cc4ccccc4cn3)cc2)CC1 [Example 26, 1-[4-(4-Isoquinolin-3-yl-benzyl)-piperidin-1-yl]-propan-1-one] | 1000 to 10000 nM
6 | CCC(=O)N1CCC(C(C)(OC)c2ccc(-c3cnc4ccccc4c3)cc2)CC1 (stereo not shown) [Example 208, 1-{4-[1-Methoxy-1-(4-quinolin-3-yl-phenyl)-ethyl]-piperidin-1-yl}-propan-1-one] | 100 to 999 nM
7 | CCC(=O)N1CCC(C2(c3ccc(-c4ccc5cccnc5c4)cc3)OCCCO2)CC1 [Example 123, 1-{4-[2-(4-Quinolin-7-yl-phenyl)-1,3-dioxinan-2-yl]-piperidin-1-yl}-propan-1-one] | 1000 to 10000 nM
8 | CCC(=O)N1CCC(C(C)(O)c2ccc(-c3ccc4cnccc4c3)cc2F)CC1 (stereo not shown) [Example 132, 1-{4-[1-(2-Fluoro-4-isoquinolin-6-yl-phenyl)-1-hydroxy-ethyl]-piperidin-1-yl}-propan-1-one] | 1 to 99 nM
9 | Cc1c(-c2ccc(C(C)C3CCN(C(=O)C4CC4)CC3)cc2)ccc2cccnc12 (stereo not shown) [Example 63, Cyclopropyl-(4-{1-[4-(8-methylquinolin-7-yl)-phenyl]-ethyl}-piperidin-1-yl)-methanone] | 1 to 99 nM

Results, then the molecule that gave them:

Row | IC50 | Compound
10 | 1000 to 10000 nM | O=C(N1CCC(C2(c3ccc(-c4ccc5ncccc5c4)cc3)OCCO2)CC1)C(F)(F)F [Example 98, 2,2,2-Trifluoro-1-{4-[2-(4-quinolin-6-yl-phenyl)-1,3-dioxolan-2-yl]-piperidin-1-yl}-ethanone]
11 | 1 to 99 nM | Cc1c(-c2ccc(CC3(F)CCN(C(=O)C4CC4)CC3)cc2)cnc2ccccc12 [Example 191, Cyclopropyl(4-fluoro-4-(4-(4-methylquinolin-3-yl)benzyl)piperidin-1-yl)methanone]
12 | 1000 to 10000 nM | Cc1c(-c2ccc(C3(C4CCN(C(=O)[C@H]5CCCO5)CC4)CC3)cc2)ccc2cccnc12 [Example 79, (4-{1-[4-(8-Methylquinolin-7-yl)-phenyl]-cyclopropyl}-piperidin-1-yl)-(R)-tetrahydrofuran-2-yl-methanone]
13 | 1000 to 10000 nM | CCCC(=O)N1CCC(C2(c3ccc(-c4ccc5ncccc5c4)cc3)OCCO2)CC1 [Example 105, 1-{4-[2-(4-Quinolin-6-yl-phenyl)-1,3-dioxolan-2-yl]-piperidin-1-yl}-butan-1-one]
14 | 100 to 999 nM | CCC(=O)N1CCC(C2(c3ccc(-c4ccc5cccnc5c4)cc3)OCCO2)CC1 [Example 114, 1-{4-[2-(4-Quinolin-7-yl-phenyl)-1,3-dioxolan-2-yl]-piperidin-1-yl}-propan-1-one]
15 | 1000 to 10000 nM | CC(c1ccc(-c2cnc3ccccc3c2)cc1)C1CCN(C(=O)OC(C)(C)C)CC1 (stereo not shown) [Example 57, 4-[1-(4-quinolin-3-yl-phenyl)-ethyl]-piperidine-1-carboxylic Acid t-Butyl Ester]
16 | 1000 to 10000 nM | CC(=O)N1CCC(C2(c3ccc(-c4ccc5ncccc5c4)cc3)OCCO2)CC1 [Example 106, 1-{4-[2-(4-Quinolin-6-yl-phenyl)-1,3-dioxolan-2-yl]-piperidin-1-yl}-ethanone]
